Where only a bound is given, the exact number is not on record here.

The target of the experiment is human RIP1 kinase domain (2-375) (Homo sapiens (Human), UniProt Q13546). The experiment is described as follows: RIP1 kinase inhibition biochemical assay (Transcreener ADP, fluorescence polarization). Conditions: Ki app from tight-binding Morrison equation; 50 nM enzyme, 50 uM ATP, 2 hours incubation. The procedure, abridged: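 Baculovirus-expressed human RIP1 kinase domain (2-375), 50 nM, incubated 2 h with compounds in pH 7.5 Hepes, 30 mM MgCl2, 50 uM ATP, 0.5% DMSO. ADP detected by Transcreener fluorescence-polarization tracer displacement; Ki^app from Morrison tight-binding fit.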
(Fluorescence polarisation rises when a labelled molecule tumbles more slowly, as on binding a larger partner.)

human RIP1 kinase domain (2-375), sequence (Q13546 2-375): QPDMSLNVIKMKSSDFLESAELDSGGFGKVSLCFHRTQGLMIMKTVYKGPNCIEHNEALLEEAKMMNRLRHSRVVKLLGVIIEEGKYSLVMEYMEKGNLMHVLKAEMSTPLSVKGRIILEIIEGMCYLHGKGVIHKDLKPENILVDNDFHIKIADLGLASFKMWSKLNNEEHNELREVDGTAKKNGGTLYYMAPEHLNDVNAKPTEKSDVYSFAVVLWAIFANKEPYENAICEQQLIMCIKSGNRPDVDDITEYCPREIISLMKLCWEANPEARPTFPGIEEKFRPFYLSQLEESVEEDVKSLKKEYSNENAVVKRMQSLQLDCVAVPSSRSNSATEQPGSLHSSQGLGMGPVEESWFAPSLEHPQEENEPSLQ

The molecule `[O-][S@+](CF)c1nc2n(n1)[C@H](c1cccc(F)c1)C[C@@H]2F` (single isomer, unassigned) [Example 83] returned a Ki of 130 nM.
For `O=S(=O)(c1nc2n(n1)[C@H](c1cc(F)ccc1F)C[C@@H]2F)C1CC1F` (stereo in doubt) [Example 202, (5S,7S)-5-(2,5-difluorophenyl)-7-fluoro-2-[(1R,2R)-2-fluorocyclopropyl]sulfonyl-6,7-dihydro-5H-pyrrolo[1,2-b][1,2,4]triazole] the value was less than 5 nM; for `CC(C)[S@+]([O-])c1nc2n(n1)[C@H](c1ccccc1)C[C@@H]2F` (single isomer, unassigned) [Example 189], 760 nM.
Molecule `O=S(=O)(c1nc2n(n1)[C@H](c1ccccc1F)C[C@@H]2F)C1CC1F` (stereo in doubt) [Example 205, (5S,7S)-7-fluoro-5-(2-fluorophenyl)-2-[(1S,2S)-2-fluorocyclopropyl]sulfonyl-6,7-dihydro-5H-pyrrolo[1,2-b][1,2,4]triazole] yielded a Ki of 20 nM.
For `CCS(=O)(=O)c1nc2n(n1)C(c1ccccc1)CC2` (racemic) [Example 2, 2-ethylsulfonyl-5-phenyl-6,7-dihydro-5H-pyrrolo[1,2-b][1,2,4]triazole] the value was 864 nM; for `O=S(=O)(c1nc2n(n1)C(c1ccccc1)CC2)C(F)(F)c1ccccc1` (racemic) [Example 4, 2-[difluoro(phenyl)methyl]sulfonyl-5-phenyl-6,7-dihydro-5H-pyrrolo[1,2-b][1,2,4]triazole], 152 nM.
Next, `[O-][S@+](CC(F)(F)F)c1nc2n(n1)[C@H](c1ccccc1)C[C@@H]2F` (single isomer, unassigned) [Example 185]: 19 nM.
Next, `O=S(=O)(c1nc2n(n1)[C@H](c1cc(F)ccc1F)C[C@@H]2F)C1CC1` (single isomer, unassigned) [Example 37]: 6 nM; `O=S(=O)(c1nc2n(n1)[C@H](c1cccc(Cl)c1)C[C@@H]2F)C1CC1` [Example 203, (5S,7S)-5-(3-chlorophenyl)-2-cyclopropylsulfonyl-7-fluoro-6,7-dihydro-5H-pyrrolo[1,2-b][1,2,4]triazole]: 39 nM; `O=S(=O)(c1nc2n(n1)[C@H](c1ccc(F)cc1)C[C@@H]2F)C1CC1F` (stereo in doubt) [Example 196, (5S,7S)-7-fluoro-5-(4-fluorophenyl)-2-[(1S,2S)-2-fluorocyclopropyl]sulfonyl-6,7-dihydro-5H-pyrrolo[1,2-b][1,2,4]triazole]: 32 nM.
Regarding `N#Cc1cccc([C@@H]2C[C@H](F)c3nc(S(=O)(=O)C(F)F)nn32)c1` (single isomer, unassigned) [Example 192], the Ki is 350 nM.
In turn, `N#CCS(=O)(=O)c1nc2n(n1)[C@H](c1ccccc1)C[C@@H]2F` (single isomer, unassigned) [Example 88] registered a Ki of 32 nM.
`[O-][S@+](CF)c1nc2n(n1)[C@H](c1ccccc1Cl)C[C@@H]2F` (single isomer, unassigned) [Example 87] yielded a Ki of 100 nM.
For `O=S(=O)(c1nc2n(n1)[C@H](c1ccccc1)C[C@@H]2F)[C@H]1CCC1(F)F` [Example 172, (5S,7S)-7-fluoro-5-phenyl-2-[(1S)-2,2-difluorocyclobutyl]sulfonyl-6,7-dihydro-5H-pyrrolo[1,2-b][1,2,4]triazole] the value was 6 nM; for `O=S(=O)(c1nc2n(n1)[C@@H](c1ccccc1)C[C@H]2F)C1CC1` (single isomer, unassigned) [Example 14], 980 nM; for `[O-][S@+](c1nc2n(n1)[C@H](c1ccccc1)C[C@@H]2F)C(F)(F)F` (single isomer, unassigned) [Example 181], 4 nM.
Next, `O=S(=O)(c1nc2n(n1)[C@H](c1cc(F)ccc1F)C[C@@H]2F)[C@H]1CC1(F)F` (single isomer, unassigned) [Example 126]: less than 5 nM; `[O-][S@@+](CF)c1nc2n(n1)[C@H](c1ccccc1)C[C@@H]2F` (single isomer, unassigned) [Example 73]: 3 nM; `[O-][S@+](c1nc2n(n1)[C@H](c1ccccc1Cl)CC2)C(F)F` [Example 18, (5S)-5-(2-chlorophenyl)-2-[(R)-difluoromethylsulfinyl]-6,7-dihydro-5H-pyrrolo[1,2-b][1,2,4]triazole]: 8 nM.
Next, `O=S(=O)(c1nc2n(n1)[C@H](c1ccc(F)c(F)c1)C[C@@H]2F)C(F)F` (single isomer, unassigned) [Example 63]: 34 nM; `O=S(=O)(c1nc2n(n1)[C@H](c1ccccc1)C[C@@H]2F)C1CC12CC2` (stereo partly drawn) [Example 170, (5S,7S)-7-fluoro-5-phenyl-2-spiro[2.2]pentan-2-ylsulfonyl-6,7-dihydro-5H-pyrrolo[1,2-b][1,2,4]triazole]: less than 5 nM.
Regarding `N#CC[S@+]([O-])c1cc2n(n1)[C@H](c1ccccc1)C[C@@H]2F` (single isomer, unassigned) [Example 92], the Ki came out at 19 nM.
Next, `[O-][S+](Cc1ccccc1)c1nc2n(n1)[C@H](c1ccccc1)C[C@@H]2F` (stereo partly drawn) [Example 20, (5S,7S)-2-benzylsulfinyl-7-fluoro-5-phenyl-6,7-dihydro-5H-pyrrolo[1,2-b][1,2,4]triazole]: 24 nM; `O=S(=O)(c1nc2n(n1)[C@H](c1cccc(F)c1)C[C@@H]2F)C(F)(F)F` (single isomer, unassigned) [Example 135]: 4 nM.
Next, `O=S(=O)(c1nc2n(n1)[C@H](c1ccccc1)C[C@@H]2F)C1(F)CC1` (single isomer, unassigned) [Example 178]: 6 nM; `O=S(=O)(c1nc2n(n1)[C@H](c1ccccc1Cl)CC2)C(F)F` [Example 16, (5S)-5-(2-chlorophenyl)-2-(difluoromethylsulfonyl)-6,7-dihydro-5H-pyrrolo[1,2-b][1,2,4]triazole]: 56 nM.
Next, `O=S(=O)(c1nc2n(n1)[C@H](c1cccc(F)c1)C[C@@H]2F)C1CC1` (single isomer, unassigned) [Example 48]: less than 5 nM.
`CC(F)(F)S(=O)(=O)c1nc2n(n1)[C@H](c1ccccc1)C[C@@H]2F` (single isomer, unassigned) [Example 149] came in with a Ki of 16 nM.
Next, `C[C@H](F)S(=O)(=O)c1nc2n(n1)[C@H](c1ccccc1)C[C@@H]2F` (single isomer, unassigned) [Example 160]: 18 nM.
For `[O-][S@@+](CC(F)(F)F)c1nc2n(n1)[C@H](c1ccccc1)C[C@@H]2F` (single isomer, unassigned) [Example 183] the value was 4 nM; for `O=S(=O)(c1nc2n(n1)[C@H](c1cc(F)cc(F)c1F)C[C@@H]2F)C(F)F` (single isomer, unassigned) [Example 60], 7 nM; for `N#CC[S@@+]([O-])c1nc2n(n1)[C@H](c1ccc(F)cc1)C[C@@H]2F` (single isomer, unassigned) [Example 100], 3 nM.
Next, `C[C@H]1C[C@@H]1S(=O)(=O)c1nc2n(n1)[C@H](c1ccccc1)C[C@@H]2F` (mixture of isomers) [Example 162, (5S,7S)-7-fluoro-5-phenyl-2-[rac-(1S,2S)-2-methylcyclopropyl]sulfonyl-6,7-dihydro-5H-pyrrolo[1,2-b][1,2,4]triazole]: 14 nM; `O=S(=O)(c1nc2n(n1)[C@H](c1ccccc1)C[C@@H]2F)C(F)(F)CO` (single isomer, unassigned) [Example 156]: 270 nM.
Consider `O=S(=O)(c1nc2n(n1)[C@H](c1cccc(Cl)c1F)C[C@@H]2F)C(F)F` (single isomer, unassigned) [Example 65], for which the Ki was found to be 18 nM.
Next, `COCCS(=O)(=O)c1nc2n(n1)[C@H](c1ccccc1)C[C@@H]2F` (single isomer, unassigned) [Example 224]: 180 nM; `N#C[C@H]1C[C@@H]1S(=O)(=O)c1nc2n(n1)[C@H](c1ccccc1)C[C@@H]2F` [Example 209, (1R,2S)-2-[[(5S,7S)-7-fluoro-5-phenyl-6,7-dihydro-5H-pyrrolo[1,2-b][1,2,4]triazol-2-yl]sulfonyl]cyclopropanecarbonitrile]: less than 5 nM; `N#CC[S@@+]([O-])c1nc2n(n1)[C@H](c1cccc(F)c1)C[C@@H]2F` (single isomer, unassigned) [Example 98]: 3 nM.
The molecule `O=S(=O)(c1nc2n(n1)[C@H](c1ccccc1)C[C@@H]2F)C(F)F` (single isomer, unassigned) [Example 23] gave a Ki of 5 nM.
For `O=S(=O)(c1nc2n(n1)[C@H](c1c(F)cccc1F)C[C@@H]2F)C(F)F` (single isomer, unassigned) [Example 58] the value was 34 nM; for `N#CCS(=O)(=O)c1cc2n(n1)[C@H](c1ccccc1)C[C@@H]2F` (single isomer, unassigned) [Example 90], 8 nM.
Next, `O=S(=O)(c1nc2n(n1)[C@H](c1c(F)cccc1F)C[C@@H]2F)C1CC1` (single isomer, unassigned) [Example 35]: 5 nM.
For `O=S(=O)(c1nc2n(n1)[C@H](c1ccccc1F)C[C@@H]2F)[C@@H]1CC1(F)F` (single isomer, unassigned) [Example 124] the value was less than 5 nM; for `N#C[C@H]1C[C@@H](S(=O)(=O)c2nc3n(n2)[C@H](c2ccccc2)C[C@@H]3F)C1` [Example 210, Cis-3-[[(5S,7S)-7-fluoro-5-phenyl-6,7-dihydro-5H-pyrrolo[1,2-b][1,2,4]triazol-2-yl]sulfonyl]cyclobutanecarbonitrile], 55 nM.
For the molecule `O=S(=O)(c1nc2n(n1)[C@@H](c1cccc(F)c1F)C[C@H]2F)C(F)(F)F` (single isomer, unassigned) [Example 140], the Ki worked out at 540 nM.

Source of the values: patent US11072617B2, “Bicyclic sulfones and sulfoxides and methods of use thereof” (Genentech, Inc., priority 2017, dated 2021).
